Data: patent US7101831B2, “Compositions of material, especially lubricants and pressure transmitting means, the production and use thereof” (Fuchs Petrolub AG, priority 2000, dated 2006)

Legend:
Type in all cases: physicochemical
[1] = Kinematic viscosity (KV) of the esters compared to methyl oleate
Text: (§1) Example 27 illustrates the properties of the methyl formyloxystearate and methyl [2,2-dimethylpropionyloxy]-stearate esters prepared according to examples 1 and 4 compared to pure methyl oleate (base raw material).

Pour point = test: Pour point
Text: as §1

Viscosity index (VI) = test: Viscosity index (VI)
Text: as §1

[2] = ROBOT oxidation stability test; conditions: 35 g of lubricant; 6.25 bar of oxygen; T = 120° C., without catalyst
Density = test: Density
Text: as §1

Row | KV (40° C.) [1] [mm^2/s] | KV (100° C.) [1] [mm^2/s] | Pour point (Pour point) [°C] | VI (Viscosity index (VI)) | ROBOT [2] [min] | Density (15° C.) (Density) [kg/m^3] | Compound
1 | 4.5 | 1.7 | −18 | 178 | 10 | – | CCCCCCCC/C=C\CCCCCCCC(=O)OC [Methyl oleate, methyl oleate, reference compound]
2 | 13.1 | 3.4 | −9 | 139 | 27 | 902.73 | CCCCCCCCCC(CCCCCCCC(=O)OC)OC(=O)C(C)(C)C (centres unmarked) [methyl 9-(10)-[2,2′-dimethylpropionyloxy]stearate]
3 | 12.0 | 3.1 | −18 | 120 | 165 | 933.65 | methyl 9(10)-formyloxystearate [Methyl formyloxystearate]
